Key:
[1] = Active oxygen method (AOM), soybean oil; settings: soybean oil subjected to oxidative stress, 500 ppm antioxidant, FIG. 1
[2] = Oil stability index (OSI) method, soybean oil; settings: 500 ppm antioxidant, FIG. 1

In the case of `CCOc1ccc2c(c1)C(C)=CC(C)(C)N2` [ETX, 6-ethoxy-1,2-dihydro-2,2,4-trimethylquinoline], the peroxide values [1] was “about 11 meq” and the OSI induction time [2] was “about 6 hr”.

Reference: patent publication US20080015217A1, “ANTIOXIDANT COMBINATIONS FOR USE IN RUMINANT FEED RATIONS” (NOVUS INTERNATIONAL, INC., priority 2006, published 2008)
